Assay results reported in ChEMBL document CHEMBL4715785, “Pyrazolo[1,5a]pyrimidines as a new class of FUSE binding protein 1 (FUBP1) inhibitors” (Bioorg Med Chem, 2016).
Each block holds one compound with its values, some of them ahead of it. Activity calls are given as the source filed them. The rule behind the calls is not given here.

Columns and labels:
[1] = target: T1, Far upstream element-binding protein 1 (Homo sapiens, UniProt Q96AE4); test: Inhibition of 6xHis-tagged human FUBP1 expressed in HEK293T cells assessed as reduction in FUBP1 interaction with biotinylated NLC chip immobilized FUSE p21 oligonucleotide incubated for 21 hrs by SPR analysis
T1 sequence (Q96AE4 whole entry): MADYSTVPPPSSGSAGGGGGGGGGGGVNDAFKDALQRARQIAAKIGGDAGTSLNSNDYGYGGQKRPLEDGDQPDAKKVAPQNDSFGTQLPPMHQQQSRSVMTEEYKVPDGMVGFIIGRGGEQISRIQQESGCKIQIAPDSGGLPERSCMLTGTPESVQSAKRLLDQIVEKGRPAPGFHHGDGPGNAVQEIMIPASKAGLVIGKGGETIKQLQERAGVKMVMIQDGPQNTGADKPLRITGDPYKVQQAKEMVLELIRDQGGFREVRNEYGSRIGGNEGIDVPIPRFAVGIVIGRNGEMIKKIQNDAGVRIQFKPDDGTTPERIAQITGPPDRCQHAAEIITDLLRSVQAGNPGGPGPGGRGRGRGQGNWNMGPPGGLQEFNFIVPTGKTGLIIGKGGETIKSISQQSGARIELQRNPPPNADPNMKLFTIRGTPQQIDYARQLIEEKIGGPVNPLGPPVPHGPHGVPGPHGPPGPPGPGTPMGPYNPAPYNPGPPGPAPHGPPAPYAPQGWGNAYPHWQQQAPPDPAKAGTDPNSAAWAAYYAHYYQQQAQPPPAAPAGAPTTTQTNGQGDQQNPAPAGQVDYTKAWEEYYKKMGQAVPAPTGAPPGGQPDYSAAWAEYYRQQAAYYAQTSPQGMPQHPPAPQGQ

[2] = system: Hep 3B2; test: Cell cycle arrest in human Hep3B cells assessed as accumulation at sub-G1 phase at 20 uM measured after 24 hrs by propidium iodide and RNase A staining based Nicoletti assay (reference value: 2.5 %); type: functional
[3] = system: Hep 3B2; test: Induction of cell death in human Hep3B cells assessed as increase in number of dead cells at 10 to 20 uM measured after 24 hrs; type: functional, cell-based; details: dose 10-20 µM
[4] = system: HepG2; test: Decrease in cell expansion in human HepG2 cells at 10 to 20 uM measured after 48 to 72 hrs by Neubauer chamber method; type: functional, cell-based; details: dose 10-20 µM, time 48-72 hrs
[5] = system: Hep 3B2; test: Cell cycle arrest in human Hep3B cells assessed as accumulation at sub-G1 phase at 10 uM measured after 24 hrs by propidium iodide and RNase A staining based Nicoletti assay (reference value: 2.5 %); type: functional
[6] = system: HepG2; test: Induction of cell death in human HepG2 cells assessed as increase in number of dead cells at 10 to 20 uM measured after 72 hrs; type: functional, cell-based; details: dose 10-20 µM
[7] = system: Huh-7; test: Decrease in cell expansion in human Huh-7 cells at 10 to 20 uM measured after 24 hrs by Neubauer chamber method; type: functional, cell-based; details: dose 10-20 µM
[8] = system: Hep 3B2; test: Decrease in cell expansion in human Hep3B cells at 10 to 20 uM measured after 48 to 72 hrs by Neubauer chamber method; type: functional, cell-based; details: dose 10-20 µM, time 48-72 hrs

Compound: COc1ccc(-c2cc(C(F)(F)F)n3nc(C4CC4)cc3n2)cc1OC
IC50 ([1]; read-out: IC50): 102 µM

Compound: COc1ccc(-c2cc(C(F)(F)F)n3nc(-c4ccc(Cl)cc4)cc3n2)cc1OC
IC50 ([1]; hek293t): Not Active

Compound: Cc1cc2nc(-c3ccncc3)cc(C(F)(F)F)n2n1
IC50 ([1]; hek293t): Not Active

Compound: FC(F)(F)c1cc(-c2ccccn2)nc2cc(C3CC3)nn12
IC50 ([1]; hek293t): Not Active

Compound: O=[N+]([O-])c1cccc(-c2cc(C(F)(F)F)n3nc(-c4ccco4)cc3n2)c1
IC50 ([1]; hek293t): Not Active

Compound: COc1ccc(-c2cc(C(F)(F)F)n3nc(-c4cccs4)cc3n2)cc1OC
Activity [2]: 16.1% | Activity [3]: Active | Activity [4]: Active | Activity [5]: 7.7% | Activity [6]: inactive | Activity [7]: Active | Activity [8]: Active

Compound: FC(F)(F)c1cc(-c2ccc(Cl)cc2)nc2cc(C3CC3)nn12
IC50 ([1]; hek293t): Not Active

Compound: FC(F)(F)c1cc(-c2ccc3c(c2)OCO3)nc2cc(-c3ccco3)nn12
IC50 ([1]; hek293t): Not Active

Compound: COc1ccc(-c2cc(C(F)(F)F)n3nc(-c4ccccc4)cc3n2)cc1OC
IC50 ([1]; hek293t): Not Active

Compound: COc1ccc(-c2cc(C(F)(F)F)n3nc(-c4ccco4)cc3n2)cc1
IC50 ([1]; hek293t): Not Active

Compound: FC(F)(F)c1cc(-c2ccc3c(c2)CCC3)nc2cc(-c3ccco3)nn12
IC50 ([1]; hek293t): Not Active

Compound: FC(F)(F)c1cc(-c2ccc3ccccc3c2)nc2cc(-c3ccco3)nn12
IC50 ([1]; hek293t): Not Active

Compound: COc1ccc(-c2cc(C(F)(F)F)n3nc(C(C)(C)C)cc3n2)cc1OC
IC50 ([1]; hek293t): Not Active

Compound: FC(F)(F)c1cc(-c2ccc(Cl)cc2)nc2cc(-c3ccco3)nn12
IC50 ([1]; hek293t): Not Active

More lines, now with the values ahead:

IC50 ([1]; hek293t): Not Active
Compound: FC(F)(F)c1cc(-c2ccco2)nc2cc(-c3ccco3)nn12

IC50 ([1]; hek293t): Not Active
Compound: Fc1ccc(-c2cc(C(F)(F)F)n3nc(-c4cccs4)cc3n2)cc1

IC50 ([1]; read-out: IC50): > 100 µM
Compound: FC(F)(F)c1cc(-c2cccs2)nc2cc(-c3cccs3)nn12

IC50 ([1]; hek293t): Not Active
Compound: FC(F)(F)c1cc(-c2cccc(Cl)c2)nc2cc(-c3cccs3)nn12

IC50 ([1]; hek293t): Not Active
Compound: FC(F)(F)c1cc(-c2cccs2)nc2cc(-c3ccco3)nn12

IC50 ([1]; hek293t): Not Active
Compound: FC(F)(F)c1cc(-c2ccncc2)nc2cc(-c3ccco3)nn12

IC50 ([1]; hek293t): Not Active
Compound: FC(F)(F)c1cc(-c2nccs2)nc2cc(-c3cccs3)nn12

IC50 ([1]; read-out: IC50): > 100 µM
Compound: COc1ccc(-c2cc(C(F)(F)F)n3nc(-c4cccs4)cc3n2)cc1

IC50 ([1]; hek293t): Not Active
Compound: Cc1cc(C(F)(F)F)n2nc(-c3cccs3)cc2n1

IC50 ([1]; read-out: IC50): > 100 µM
Compound: FC(F)(F)c1cc(-c2ccncc2)nc2cc(-c3cccs3)nn12

IC50 ([1]; read-out: IC50): > 100 µM
Compound: FC(F)(F)c1cc(-c2ccccc2)nc2cc(-c3cccs3)nn12

IC50 ([1]; read-out: IC50): > 100 µM
Compound: FC(F)(F)c1cc(-c2cccnc2)nc2cc(-c3cccs3)nn12

IC50 ([1]; read-out: IC50): > 100 µM
Compound: FC(F)(F)c1cc(-c2ccc(Cl)cc2)nc2cc(-c3cccs3)nn12
